# Test results: patent publication US9393190B2, “Methods for enhancing skin tan and reducing risks of UV skin damage” (DSM IP ASSETS B.V., priority 2009, dated 2016)
# System: Normal human melanocytes NHM (HEMn-MP, Clonetics)
# Experiment: Quantification of melanin synthesis in cell culture (total melanin, absorbance at 405 nm)
# Type: cell-based
# Description: Quantification of Melanin Synthesis in Cell Culture:
# Normal human melanocytes NHM (HEMn-MP, Clonetics) were seeded in 96 well cell culture plates and grown to sub-confluence for two days in a mixture of M2-Medium (Clonetics) and Medium (Promocell). Culture medium was exchanged with Culture Medium containing Steviol (96%) and melanogenesis progressed for another three days at 37° C. with another medium exchange on day two. Including cell layer and culture supernatant the total melanin was extracted using 1.7M KOH with vigorous shaking at RT. The total melanin content was determined at 405 nm in an absorbance plate reader versus a control (100%)
smiles,measurement,setting,value
C=C1C[C@@]23CC[C@H]4[C@@](C)(CCC[C@@]4(C)C(=O)O)[C@@H]2CC[C@]1(O)C3 [Steviol],effect on the production of melanin in human melanocytes,0.25 to 1 micro M,clear dose dependent positive effect
same,potency relative to positive control Glycyrrhizin,melanin production in human melanocytes,about 1000 times
